From patent US10118930B2, “Piperidinylpyrazolopyrimidinones and their use” (BAYER PHARMA AKTIENGESELLSCHAFT, priority 2015, dated 2018) come the findings set out here.

Structures can show the parent of a compound that is named as a salt.

This assay has as its system clot lysis (fibrinolysis) in diluted human citrated plasma, tPA-induced. The assay can be described thus: Plasma-based clot lysis assay (5%). The class given is biochemical. The conditions noted are these: human citrated platelet-poor plasma 5%, fibrinogen 3 μM, CaCl2 10 mM, tPA 0.2 nM, 37° C., OD at 405 nm. The procedure:
B-2. Plasma-based Clot Lysis Assay (5%)
The clot-lysis test system configures the kinetics of clot formation and degradation in vitro and allows quantifying modulation of the process by selected test compounds.
The test compounds were dissolved in 1% acetic acid and further complemented with an equal volume of DMSO. The resulting stock solutions were serially diluted in 0.5% acetic acid/50% DMSO. 1 μL aliquots of these solutions were placed into 384 well microplates (Greiner, black, transparent bottom), followed by 30 μL of diluted human citrated plasma (platelet-poor, final concentration: 5%; supplemented with fibrinogen, final concentration: 3 μM; dilution buffer: 20 mM HEPES, 150 mM NaCl, 0.01% Brij (pH 7)). The reactions were started by addition of 20 μL of CaCl2 (final concentration: 10 mM), and tPA (tissue plasminogen activator, final concentration: 0.2 nM) in dilution buffer, followed by an additional volume of 20 μL dilution buffer for improved mixing. The reactions were incubated at 37° C. […] IC50 values were determined by comparing the resulting time courses with the time course of a blank control reaction.

On to `O=C(NCCN1CCOC1=O)c1cnn2c(C3CCNCC3)cc(=O)[nH]c12` [Example 92, 5-oxo-N-[2-(2-oxo-1,3-oxazolidin-3-yl)ethyl]-7-(piperidin-4-yl)-4,5-dihydropyrazolo[1,5-a]pyrimidine-3-carboxamide hydrochloride], for which the midpoint of inhibition, the IC50, lay at 33 nM. For `CC(C)(C)CNC(=O)c1cnn2c(C3CCNCC3)cc(=O)[nH]c12` [Example 93, N-(2,2-dimethylpropyl)-5-oxo-7-(piperidin-4-yl)-4,5-dihydropyrazolo[1,5-a]pyrimidine-3-carboxamide hydrochloride], half-maximal inhibition (IC50) was put at 22 nM.

For `O=C(NC1(Cc2ccccc2)CC1)c1cnn2c(C3CCNCC3)cc(=O)[nH]c12` [Example 94, N-(1-benzylcyclopropyl)-5-oxo-7-(piperidin-4-yl)-4,5-dihydropyrazolo[1,5-a]pyrimidine-3-carboxamide hydrochloride], the IC50 was 30 nM. `O=C(c1cnn2c(C3CCNCC3)cc(=O)[nH]c12)N1CCC(O)CC1` [Example 95, 3-[(4-hydroxypiperidin-1-yl)carbonyl]-7-(piperidin-4-yl)pyrazolo[1,5-a]pyrimidin-5(4H)-one hydrochloride] registered an IC50 of 43 nM.

`CCCN(CC)C(=O)c1cnn2c(C3CCNCC3)cc(=O)[nH]c12` [Example 96, N-ethyl-5-oxo-7-(piperidin-4-yl)-N-propyl-4,5-dihydropyrazolo[1,5-a]pyrimidine-3-carboxamide hydrochloride] gave a half-maximal inhibitory concentration (IC50) of 33 nM.

Consider `CN(Cc1ccccc1)C(=O)c1cnn2c(C3CCNCC3)cc(=O)[nH]c12` [Example 97, N-benzyl-N-methyl-5-oxo-7-(piperidin-4-yl)-4,5-dihydropyrazolo[1,5-a]pyrimidine-3-carboxamide hydrochloride], for which inhibition was half-maximal at 24 nM (IC50). Take `CCC(=O)N1CCN(C(=O)c2cnn3c(C4CCNCC4)cc(=O)[nH]c23)CC1` [Example 98, 7-(piperidin-4-yl)-3-[(4-propanoylpiperazin-1-yl)carbonyl]pyrazolo[1,5-a]pyrimidin-5(4H)-one hydrochloride]: the IC50 is 90 nM.

`O=C1CCN(C(=O)c2cnn3c(C4CCNCC4)cc(=O)[nH]c23)CCN1` [Example 100, 3-[(5-oxo-1,4-diazepan-1-yl)carbonyl]-7-(piperidin-4-yl)pyrazolo[1,5-a]pyrimidin-5(4H)-one hydrochloride] showed an IC50 of 110 nM.

For `CN(CC(F)(F)F)C(=O)c1cnn2c(C3CCNCC3)cc(=O)[nH]c12` [Example 103, N-methyl-5-oxo-7-(piperidin-4-yl)-N-(2,2,2-trifluoroethyl)-4,5-dihydropyrazolo[1,5-a]pyrimidine-3-carboxamide hydrochloride], the IC50 is 35 nM. `CC1CCCN(C(=O)c2cnn3c(C4CCNCC4)cc(=O)[nH]c23)C1C` (stereo not shown) [Example 104, 3-[(2,3-dimethylpiperidin-1-yl)carbonyl]-7-(piperidin-4-yl)pyrazolo[1,5-a]pyrimidin-5(4H)-one hydrochloride] yielded an IC50 of 31 nM. `COCC(C)(C)c1noc(-c2cnn3c(C4CCNCC4)cc(=O)[nH]c23)n1` [Example 105, 3-[3-(1-methoxy-2-methylpropan-2-yl)-1,2,4-oxadiazol-5-yl]-7-(piperidin-4-yl)pyrazolo[1,5-a]pyrimidin-5(4H)-one] registered an IC50 of 95 nM.

Take `O=c1cc(C2CCNCC2)n2ncc(-c3nc(Cc4ccccc4)no3)c2[nH]1` [Example 106, 3-(3-benzyl-1,2,4-oxadiazol-5-yl)-7-(piperidin-4-yl)pyrazolo[1,5-a]pyrimidin-5(4H)-one]: half-maximal inhibition (IC50) was put at 63 nM. For the compound `CCc1noc(-c2cnn3c(C4CCNCC4)cc(=O)[nH]c23)n1` [Example 107, 3-(3-ethyl-1,2,4-oxadiazol-5-yl)-7-(piperidin-4-yl)pyrazolo[1,5-a]pyrimidin-5(4H)-one], the IC50 came to 49 nM. With `O=c1cc(C2CCNCC2)n2ncc(-c3nc(C4CCC4)no3)c2[nH]1` [Example 108, 3-(3-cyclobutyl-1,2,4-oxadiazol-5-yl)-7-(piperidin-4-yl)pyrazolo[1,5-a]pyrimidin-5(4H)-one], the IC50 was 76 nM. With `O=c1cc(C2CCNCC2)n2ncc(-c3nc(-c4ccc(F)s4)no3)c2[nH]1` [Example 109, 3-[3-(5-fluorothiophen-2-yl)-1,2,4-oxadiazol-5-yl]-7-(piperidin-4-yl)pyrazolo[1,5-a]pyrimidin-5(4H)-one], the IC50 stood at 120 nM. In turn, `O=c1cc(C2CCNCC2)n2ncc(-c3nc(-c4ccco4)no3)c2[nH]1` [Example 110] returned an IC50 of 82 nM. In turn, `O=c1cc(C2CCNCC2)n2ncc(-c3nc(-c4cccc(F)c4)no3)c2[nH]1` [Example 112, 3-[3-(3-Fluorophenyl)-1,2,4-oxadiazol-5-yl]-7-(piperidin-4-yl)pyrazolo[1,5-a]pyrimidin-5 (4H)-one hydrochloride] returned an IC50 of 29 nM.

On to `O=c1cc(C2CCNCC2)n2ncc(-c3nc(-c4ccc(C(F)(F)F)cc4)no3)c2[nH]1` [Example 113, 7-(Piperidin-4-yl)-3-{3-[4-(trifluoromethyl)phenyl]-1,2,4-oxadiazol-5-yl}pyrazolo[1,5-a]pyrimidin-5(4H)-one hydrochloride], for which the IC50 worked out at 44 nM.

Compound `O=c1cc(C2CCNCC2)n2ncc(-c3nc(-c4ccc(OC(F)(F)F)cc4)no3)c2[nH]1` [Example 115, 7-(Piperidin-4-yl)-3-{3-[4-(trifluoromethoxy)phenyl]-1,2,4-oxadiazol-5-yl}pyrazolo[1,5-a]pyrimidin-5(4H)-one hydrochloride] returned an IC50 of 27 nM. `COc1cc(-c2noc(-c3cnn4c(C5CCNCC5)cc(=O)[nH]c34)n2)ccc1C` [Example 116, 3-[3-(3-Methoxy-4-methylphenyl)-1,2,4-oxadiazol-5-yl]-7-(piperidin-4-yl)pyrazolo[1,5-a]pyrimidin-5(4H)-one hydrochloride] came in with an IC50 of 39 nM. In turn, `Cc1ccc(-c2noc(-c3cnn4c(C5CCNCC5)cc(=O)[nH]c34)n2)cc1F` [Example 117, 3-[3-(3-Fluoro-4-methylphenyl)-1,2,4-oxadiazol-5-yl]-7-(piperidin-4-yl)pyrazolo[1,5-a]pyrimidin-5(4H)-one hydrochloride] had an IC50 of 38 nM.

In turn, `Cc1ccccc1-c1noc(-c2cnn3c(C4CCNCC4)cc(=O)[nH]c23)n1` [Example 119, 3-[3-(2-Methylphenyl)-1,2,4-oxadiazol-5-yl]-7-(piperidin-4-yl)pyrazolo[1,5-a]pyrimidin-5 (4H)-one hydrochloride] displayed an IC50 of 79 nM. With `Cc1cccc(-c2noc(-c3cnn4c(C5CCNCC5)cc(=O)[nH]c34)n2)c1` [Example 120, 3-[3-(3-Methylphenyl)-1,2,4-oxadiazol-5-yl]-7-(piperidin-4-yl)pyrazolo[1,5-a]pyrimidin-5 (4H)-one hydrochloride] the figure was 35 nM; with `COc1ccc(-c2noc(-c3cnn4c(C5CCNCC5)cc(=O)[nH]c34)n2)cc1F` [Example 122, 3-[3-(3-Fluoro-4-methoxyphenyl)-1,2,4-oxadiazol-5-yl]-7-(piperidin-4-yl)pyrazolo[1,5-a]pyrimidin-5(4H)-one hydrochloride], 35 nM. For the compound `Cc1ccc(-c2noc(-c3cnn4c(C5CCNCC5)cc(=O)[nH]c34)n2)cc1Cl` [Example 123, 3-[3-(3-Chloro-4-methylphenyl)-1,2,4-oxadiazol-5-yl]-7-(piperidin-4-yl)pyrazolo[1,5-a]pyrimidin-5(4H)-one hydrochloride], the IC50 amounted to 47 nM.

`O=c1cc(C2CCNCC2)n2ncc(-c3nc(-c4cccc(OC(F)(F)F)c4)no3)c2[nH]1` [Example 124, 7-(Piperidin-4-yl)-3-{3-[3-(trifluoromethoxy)phenyl]-1,2,4-oxadiazol-5-yl}pyrazolo[1,5-a]pyrimidin-5(4H)-one hydrochloride] yielded an IC50 of 38 nM. With `COc1cccc(-c2noc(-c3cnn4c(C5CCNCC5)cc(=O)[nH]c34)n2)c1` [Example 125, 3-[3-(3-Methoxyphenyl)-1,2,4-oxadiazol-5-yl]-7-(piperidin-4-yl)pyrazolo[1,5-a]pyrimidin-5 (4H)-one hydrochloride], the IC50 amounted to 40 nM. `Cc1ccc(-c2noc(-c3cnn4c(C5CCNCC5)cc(=O)[nH]c34)n2)c(C)c1` [Example 127, 3-[3-(2,4-Dimethylphenyl)-1,2,4-oxadiazol-5-yl]-7-(piperidin-4-yl)pyrazolo[1,5-a]pyrimidin-5(4H)-one hydrochloride] displayed an IC50 of 62 nM. The compound `Cc1ccc(-c2noc(-c3cnn4c(C5CCNCC5)cc(=O)[nH]c34)n2)c(C(F)(F)F)c1` [Example 128, 3-{3-[4-Methyl-2-(trifluoromethyl)phenyl]-1,2,4-oxadiazol-5-yl}-7-(piperidin-4-yl)pyrazolo[1,5-a]pyrimidin-5(4H)-one hydrochloride] came in with an IC50 of 110 nM. Turning to `Cc1ccc(-c2noc(-c3cnn4c(C5CCNCC5)cc(=O)[nH]c34)n2)c(Cl)c1` [Example 130, 3-[3-(2-Chloro-4-methylphenyl)-1,2,4-oxadiazol-5-yl]-7-(piperidin-4-yl)pyrazolo[1,5-a]pyrimidin-5(4H)-one hydrochloride], half-maximal inhibition (IC50) required 41 nM. For `O=c1cc(C2CCNCC2)n2ncc(-c3nc(-c4cccc(Cl)c4F)no3)c2[nH]1` [Example 132, 3-[3-(3-Chloro-2-fluorophenyl)-1,2,4-oxadiazol-5-yl]-7-(piperidin-4-yl)pyrazolo[1,5-a]pyrimidin-5(4H)-one hydrochloride] the value was 35 nM.

Broadly, the IC50 is the point on the concentration scale where inhibition reaches its midpoint. Higher therefore signals lower potency.
